“And” between values parts separate entries of the source, which are not always exact repeats. Identical values can stand only once.

Experiment [1] has as its system five sixth nephrectomized rats. As to the kind of experiment: Subtotal nephrectomy induced hypertension: blood pressure. The experiment is classed as in vivo, Sprague Dawley rats. To be noted: four weeks. As to the method:
Fimasartan 10 mg/kg and Sacubitril 50 mg/kg and combination were administered for 4 weeks. Prior to initiation, Sprague Dawley rats were randomized based on their systolic blood pressure after one week of recovery. These experimental groups were treated daily by gavage for four weeks and their weekly blood pressure was measured. Rats treated with vehicle served as controls and sham operated animals treated with vehicle served as sham controls. […] Experimental model of acute cardiac failure is characterized by several features that closely mimic the pathophysiological consequences of CHF in patients, includes the characteristic neurohumoral activation, decrease in renal perfusion, sodium retention and cardiac hypertrophy (J Biomed Biotechnol. 2011; 2011: 729497). […] Five sixth nephrectomy represent a model of hypertension in rats and in clinic it has been observed that loss of renal mass is associated with increased hypertension (APMIS. 1992 December; 100(12):1097-105; International Journal of Urology (2015) 22, 797-804).

For experiment [2], the system named is rat model of infrarenal abdominal aorta-vena cava fistula (AV fistula). As to the kind of experiment: AV fistula model: cumulative urinary sodium excretion. In kind it is in vivo, Sprague Dawley rats. The conditions noted are these: PO; for Urinary sodium (cumulative sodium excretion): 7 days of treatment, AV fistula rats; for % change in urinary sodium: 7 days, against vehicle control. From the text:
Sprague Dawley rats will be used in the study at the age to 6-8 weeks. A midline abdominal incision will be made under anesthesia to expose the vena cava and abdominal aorta distal to the origin of the renal arteries. A longitudinal incision will be performed in the outer wall of the vena cava. The common wall between the aorta and vena cava will be grabbed through the incision and a fistula (1.0-1.2 mm outer diameter) will be created between the vena cava and aorta. The opening of the outer wall of the vena cava will be closed with a continuous suture. After the surgical procedure, the animals will be allowed to recover with daily monitoring of urine output and sodium excretion in metabolic cages. A matched group of sham-operated rats will serve as controls. After a week of surgical operation, rats will be divided into subgroups according to their daily absolute rate of sodium excretion. Fimasartan or its pharmaceutically acceptable salt, or Sacubitril or its pharmaceutically acceptable salt or their combination will be taken as a low dose, middle dose, and high dose group. Animals will be treated daily for four weeks with weekly measurement of blood pressure. Additionally, sodium excretion and creatinine clearance will be measured twice weekly. In the rat model of infrarenal abdominal aorta-vena cava fistula (AV fistula), workload on heart increases by sustained volume overload, this reduces sodium excretion and leads to cardiac hypertrophy. […] Sprague Dawley rats in these experimental groups were treated daily by gavage for seven days and urine volume and sodium excretion were daily measured. Rats treated with vehicle served as controls. Rats with sham operation or animals with arterio-venous fistula treated with vehicle served as controls. Animals were randomized based on 24 h urinary sodium excretion. Animals with <100 μEq/24 h urinary sodium excretion were selected in study except sham control animals. Treatment was initiated for 7 days with daily measurement of sodium excretion and results were expressed as cumulative urinary sodium excretion. […] These observations indicate that combination of fimasartan and sacubitril reduce volume overload associated with AV Fistula. After completion of the treatment period, mean arterial blood pressure was evaluated from animals from different experimental groups.

For experiment [3] the test system is unchanged. As to the kind of experiment: AV fistula model: mean arterial blood pressure. To be noted: for % change in meal arterial pressure / Mean arterial pressure: PO; for % change in meal arterial pressure: 7 days, against vehicle control; for Mean arterial pressure: after 7 days of treatment, AV fistula rats; for reduction of mean arterial blood pressure: after treatment period, in comparison to vehicle control, given as reduction. In kind it is in vivo, Sprague Dawley rats. The source says: Sprague Dawley rats will be used in the study at the age to 6-8 weeks. A midline abdominal incision will be made under anesthesia to expose the vena cava and abdominal aorta distal to the origin of the renal arteries. A longitudinal incision will be performed in the outer wall of the vena cava. The common wall between the aorta and vena cava will be grabbed through the incision and a fistula (1.0-1.2 mm outer diameter) will be created between the vena cava and aorta. The opening of the outer wall of the vena cava will be closed with a continuous suture. After the surgical procedure, the animals will be allowed to recover with daily monitoring of urine output and sodium excretion in metabolic cages. A matched group of sham-operated rats will serve as controls. After a week of surgical operation, rats will be divided into subgroups according to their daily absolute rate of sodium excretion. Fimasartan or its pharmaceutically acceptable salt, or Sacubitril or its pharmaceutically acceptable salt or their combination will be taken as a low dose, middle dose, and high dose group. Animals will be treated daily for four weeks with weekly measurement of blood pressure. Additionally, sodium excretion and creatinine clearance will be measured twice weekly. In the rat model of infrarenal abdominal aorta-vena cava fistula (AV fistula), workload on heart increases by sustained volume overload, this reduces sodium excretion and leads to cardiac hypertrophy. Rats receiving fimasartan (5, 10 and 30 mg/kg/day), sacubitril (25, 50 and 75 mg/kg/day) and combination (fimasartan 10 mg/kg and sacubitril 50 mg/kg) were evaluated in AV fistula model. Sprague Dawley rats in these experimental groups were treated daily by gavage for seven days and urine volume and sodium excretion were daily measured. Rats treated with vehicle served as controls. Rats with sham operation or animals with arterio-venous fistula treated with vehicle served as controls. Animals were randomized based on 24 h urinary sodium excretion. Animals with <100 μEq/24 h urinary sodium excretion were selected in study except sham control animals. Treatment was initiated for 7 days with daily measurement of sodium excretion and results were expressed as cumulative urinary sodium excretion. […] These observations indicate that combination of fimasartan and sacubitril reduce volume overload associated with AV Fistula. After completion of the treatment period, mean arterial blood pressure was evaluated from animals from different experimental groups.

In a further experiment the target is NEP (Homo sapiens, UniProt P08473). To be noted: in vivo; cited from earlier work.
Chain of NEP (P08473 whole entry): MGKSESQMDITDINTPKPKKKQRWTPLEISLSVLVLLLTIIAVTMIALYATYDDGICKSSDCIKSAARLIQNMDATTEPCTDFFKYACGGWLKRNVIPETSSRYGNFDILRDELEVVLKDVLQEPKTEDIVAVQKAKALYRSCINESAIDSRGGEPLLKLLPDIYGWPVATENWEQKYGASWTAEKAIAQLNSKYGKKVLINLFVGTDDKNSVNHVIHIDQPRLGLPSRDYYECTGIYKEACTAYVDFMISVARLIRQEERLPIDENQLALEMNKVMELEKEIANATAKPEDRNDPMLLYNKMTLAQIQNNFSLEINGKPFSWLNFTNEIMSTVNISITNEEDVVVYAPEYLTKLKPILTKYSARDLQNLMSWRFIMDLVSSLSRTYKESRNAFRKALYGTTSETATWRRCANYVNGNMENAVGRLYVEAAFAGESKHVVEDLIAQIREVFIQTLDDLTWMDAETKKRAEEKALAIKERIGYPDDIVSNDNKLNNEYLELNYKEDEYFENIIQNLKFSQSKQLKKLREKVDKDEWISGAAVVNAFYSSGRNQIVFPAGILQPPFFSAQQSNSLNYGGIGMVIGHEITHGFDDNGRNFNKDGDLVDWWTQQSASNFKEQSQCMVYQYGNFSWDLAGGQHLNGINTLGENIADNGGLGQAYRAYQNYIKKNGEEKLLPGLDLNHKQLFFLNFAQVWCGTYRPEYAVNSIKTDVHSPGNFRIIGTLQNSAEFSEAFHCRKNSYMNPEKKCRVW

As to `CCCCc1nc(C)c(CC(=S)N(C)C)c(=O)n1Cc1ccc(-c2ccccc2-c2nnn[nH]2)cc1` [Fimasartan, 2-n-butyl-5-dimethylaminothiocarbonyl-methyl-6-methyl-3-[[2′-(1H-tetrazol-5-yl)biphenyl-4-yl]methyl]pyrimidin-4(3H)-one], the “reduction in blood pressure against vehicle control” value in experiment [1] (Fimasartan 10 mg/kg daily by gavage) is given as 15.9%. The “Urinary sodium (cumulative sodium excretion)” value in experiment [2] (fimasartan 5 mg/kg) was 4784.8 ± 497.5 μeq/24 h; in experiment [2] (fimasartan 10 mg/kg) it was 5179.7 ± 451.2 μeq/24 h and 5179.7 ± 443.7 μeq/24 h; in experiment [2] (fimasartan 20 mg/kg) it was 6664.7 ± 448.2 μeq/24 h. Besides, the “% change in urinary sodium” value in experiment [2] (fimasartan 5 mg/kg) was 31.1 ± 13.6 %; in experiment [2] (fimasartan 5 mg/kg, listed as fimasartan), 31.1±13.6%; in experiment [2] (fimasartan 10 mg/kg), 41.9 ± 12.2 % and 51.2 ± 11.9 %; in experiment [2] (fimasartan 10 mg/kg, listed as fimasartan), 41.9±12.2%; in experiment [2] (fimasartan 20 mg/kg) it was 82.6 ± 13.1 %; in experiment [2] (fimasartan 20 mg/kg, listed as fimasartan), 82.6±13.1%. Also, the “% change in meal arterial pressure” value in experiment [3] (fimasartan 10 mg/kg) is recorded as −5.9 ± 1.9 %. In addition, in experiment [3] (fimasartan 10 mg/kg), the Mean arterial pressure was 111.7 ± 2.3 mmHg. In experiment [3] (fimasartan alone (FIG. 2)), the “reduction of mean arterial blood pressure” value was 5.9±1.9%.
For `CCOC(=O)[C@H](C)C[C@@H](Cc1ccc(-c2ccccc2)cc1)NC(=O)CCC(=O)O` [Sacubitril, 4-[[(2S,4R)-5-ethoxy-4-methyl-5-oxo-1-(4-phenylphenyl)pentan-2-yl]amino]-4-oxobutanoic acid], in experiment [1] (Sacubitril 50 mg/kg daily by gavage), the “reduction in blood pressure against vehicle control” value was determined as 18.7%. In addition, the “Urinary sodium (cumulative sodium excretion)” value in experiment [2] (sacubitril 25 mg/kg) was 5185.7 ± 443.7 μeq/24 h; in experiment [2] (sacubitril 50 mg/kg), 6678.7 ± 451.7 μeq/24 h; in experiment [2] (sacubitril 75 mg/kg), 9129.7 ± 449.7 μeq/24 h. Further, the “% change in urinary sodium” value was 41.9 ± 12.2 % in experiment [2] (sacubitril 25 mg/kg); 41.9±12.1% in experiment [2] (sacubitril 25 mg/kg, listed as sacubitril); 82.6 ± 13.5 % in experiment [2] (sacubitril 50 mg/kg); 82.6±13.5% in experiment [2] (sacubitril 50 mg/kg, listed as sacubitril); 150.1 ± 10.4 % in experiment [2] (sacubitril 75 mg/kg); 150.1±10.4% in experiment [2] (sacubitril 75 mg/kg, listed as sacubitril). In experiment [3] (sacubitril 50 mg/kg), the “% change in meal arterial pressure” value is reported as −8 ± 1.9 %. In addition, the Mean arterial pressure in experiment [3] (sacubitril 50 mg/kg) was 109.2 ± 2.2 mmHg. For the same molecule, the “reduction of mean arterial blood pressure” value in experiment [3] (sacubitril alone (FIG. 2)) is recorded as 8.0±1.9%.
In the case of `COCCOC[C@H](CC1(C(=O)N[C@H]2CC[C@@H](C(=O)O)CC2)CCCC1)C(=O)O` [candoxatrilat], on NEP, the “natriuretic and cyclic GMP responses to a low-dose ANP infusion” value is “potentiates”.

Source of the values: patent publication US20180311241A1, “PHARMACEUTICAL SYNERGISTIC COMBINATION” (CADILA HEALTHCARE LIMITED, priority 2015, published 2018).
